Reference: patent US4336375A, “Cephalosporanic acid derivatives” (American Cyanamid Company, priority 1980, dated 1982)
Values after ≈ are worked out from the molar mass of the structure shown. Where two headings read alike, the source gives them in different places.

Columns and labels:
[1] = tested on: Klebsiella pneumoniae MA75-1; assay: In vitro MIC, agar dilution, Klebsiella pneumoniae MA75-1; format: cell-based; conditions: MA751; Klebsiella pneumoniae MA75-1; agar dilution, 35° C., 18 hours, nutrient agar; read-out: Minimal Inhibitory Concentration
Procedure: (§1) The in vitro activity of representative compounds of the present invention are given in the following Table I in terms of minimal inhibitory concentration. The test used was the standard agar dilution test using a Steers multiple inocula replicator and incubating at 35° C. for 18 hours in conventional nutrient agar.

[2] = tested on: Enterobacter aerogenes UR76-3; assay: In vitro MIC, agar dilution, Enterobacter aerogenes UR76-3; format: cell-based; conditions: Klebsiella aerogenes, UR763; Enterobacter aerogenes UR76-3; agar dilution, 35° C., 18 hours, nutrient agar; read-out: Minimal Inhibitory Concentration
Procedure: as §1

[3] = tested on: Enterobacter cloacae OSU75-2; assay: In vitro MIC, agar dilution, Enterobacter cloacae OSU75-2; format: cell-based; conditions: OSU752; Enterobacter cloacae OSU75-2; agar dilution, 35° C., 18 hours, nutrient agar; read-out: Minimal Inhibitory Concentration
Procedure: as §1

[4] = tested on: Serratia marcens K77-1; assay: In vitro MIC, agar dilution, Serratia marcens K77-1; format: cell-based; conditions: K771; Serratia marcens K77-1; agar dilution, 35° C., 18 hours, nutrient agar; read-out: Minimal Inhibitory Concentration
Procedure: as §1

[5] = tested on: Proteus vulgaris N74-1; assay: In vitro MIC, agar dilution, Proteus vulgaris N74-1; format: cell-based; conditions: N741, 35° C., 18 hours, nutrient agar, read-out: Minimal Inhibitory Concentration
Procedure: as §1

[6] = tested on: Pseudomonas aeruginosa 12-4-4; assay: In vitro MIC, agar dilution, Pseudomonas aeruginosa 12-4-4; format: cell-based; conditions: read-out: Minimal Inhibitory Concentration
Procedure: as §1

[7] = tested on: Escherichia coli OSU75-1; assay: In vitro MIC, agar dilution, Escherichia coli OSU75-1; format: cell-based; conditions: OSU751, 35° C., 18 hours, nutrient agar, read-out: Minimal Inhibitory Concentration
Procedure: as §1

[8] = tested on: Enterococcus SM77-15; assay: In vitro MIC, agar dilution, Enterococcus SM77-15; format: cell-based; conditions: SM7715; Enterococcus SM77-15; agar dilution, 35° C., 18 hours, nutrient agar; read-out: Minimal Inhibitory Concentration
Procedure: as §1

[9] = tested on: Escherichia coli 311; assay: In vivo systemic lethal infection of mice, Escherichia coli 311; set-up: species or system Charles River CD-1 mice; conditions: CD-1 mice
Description: As shown in Table II these compounds show high in vivo antibacterial activity against Escherichia coli 311 and Klebsiella pneumoniae W-75-2 when administered by a single subcutaneous dose to groups of Charles River CD-1 mice, weighing about 20 g. each. The mice are infected intraperitoneally with a lethal dose of these bacteria.

[10] = tested on: Staphylococcus aureus Q74-1; assay: In vitro MIC, agar dilution, Staphylococcus aureus Q74-1; format: cell-based; conditions: Q741; Staphylococcus aureus Q74-1; agar dilution, 35° C., 18 hours, nutrient agar; read-out: Minimal Inhibitory Concentration
Procedure: as §1

[11] = tested on: Serratia K101; assay: In vitro MIC, agar dilution, Serratia K101; format: cell-based; conditions: Serratia K101; agar dilution, 35° C., 18 hours, nutrient agar; read-out: Minimal Inhibitory Concentration
Procedure: as §1

[12] = tested on: Proteus rettgeri N76-1; assay: In vitro MIC, agar dilution, Proteus rettgeri N76-1; format: cell-based; conditions: Providencia rettgeri, N761; Proteus rettgeri N76-1; agar dilution, 35° C., 18 hours, nutrient agar; read-out: Minimal Inhibitory Concentration
Procedure: as §1

[13] = tested on: Escherichia coli ESS22-31; assay: In vitro MIC, agar dilution, Escherichia coli ESS22-31; format: cell-based; conditions: ESS2231; Escherichia coli ESS22-31; agar dilution, 35° C., 18 hours, nutrient agar; read-out: Minimal Inhibitory Concentration
Procedure: as §1

[14] = tested on: Klebsiella pneumoniae W75-2; assay: In vitro MIC, agar dilution, Klebsiella pneumoniae W75-2; format: cell-based; conditions: W752; Klebsiella pneumoniae W75-2; agar dilution, 35° C., 18 hours, nutrient agar; read-out: Minimal Inhibitory Concentration
Procedure: as §1

[15] = tested on: Serratia marcens QHC77-2; assay: In vitro MIC, agar dilution, Serratia marcens QHC77-2; format: cell-based; conditions: QHC772; Serratia marcens QHC77-2; agar dilution, 35° C., 18 hours, nutrient agar; read-out: Minimal Inhibitory Concentration
Procedure: as §1

[16] = tested on: Staphylococcus aureus Q74-6; assay: In vitro MIC, agar dilution, Staphylococcus aureus Q74-6; format: cell-based; conditions: Q746; Staphylococcus aureus Q74-6; agar dilution, 35° C., 18 hours, nutrient agar; read-out: Minimal Inhibitory Concentration
Procedure: as §1

[17] = tested on: Proteus morganii K72; assay: In vitro MIC, agar dilution, Proteus morganii K72; format: cell-based; conditions: Morganella morganii; Proteus morganii K72; agar dilution, 35° C., 18 hours, nutrient agar; read-out: Minimal Inhibitory Concentration
Procedure: as §1

[18] = tested on: Pseudomonas aeruginosa G236; assay: In vitro MIC, agar dilution, Pseudomonas aeruginosa G236; format: cell-based; conditions: read-out: Minimal Inhibitory Concentration
Procedure: as §1

[19] = tested on: Pseudomonas aeruginosa UCS 76-13; assay: In vitro MIC, agar dilution, Pseudomonas aeruginosa UCS 76-13; format: cell-based; conditions: UCS7613; Pseudomonas aeruginosa UCS 76-13; agar dilution, 35° C., 18 hours, nutrient agar; read-out: Minimal Inhibitory Concentration
Procedure: as §1

[20] = tested on: Klebsiella pneumoniae AD; assay: In vitro MIC, agar dilution, Klebsiella pneumoniae AD; format: cell-based; conditions: Klebsiella pneumoniae AD; agar dilution, 35° C., 18 hours, nutrient agar; read-out: Minimal Inhibitory Concentration
Procedure: as §1

[21] = tested on: Klebsiella pneumoniae W75-4; assay: In vitro MIC, agar dilution, Klebsiella pneumoniae W75-4; format: cell-based; conditions: W754; Klebsiella pneumoniae W75-4; agar dilution, 35° C., 18 hours, nutrient agar; read-out: Minimal Inhibitory Concentration
Procedure: as §1

[22] = tested on: Pseudomonas aeruginosa PD05141; assay: In vitro MIC, agar dilution, Pseudomonas aeruginosa PD05141; format: cell-based; conditions: Pseudomonas aeruginosa PD05141; agar dilution, 35° C., 18 hours, nutrient agar; read-out: Minimal Inhibitory Concentration
Procedure: as §1

[23] = tested on: Klebsiella pneumoniae UR76-1; assay: In vitro MIC, agar dilution, Klebsiella pneumoniae UR76-1; format: cell-based; conditions: UR761; Klebsiella pneumoniae UR76-1; agar dilution, 35° C., 18 hours, nutrient agar; read-out: Minimal Inhibitory Concentration
Procedure: as §1

[24] = tested on: Escherichia coli 311; assay: In vitro MIC, agar dilution, Escherichia coli 311; format: cell-based; conditions: 35° C., 18 hours, nutrient agar, read-out: Minimal Inhibitory Concentration
Procedure: as §1

[25] = tested on: Enterobacter cloacae MA75-1; assay: In vitro MIC, agar dilution, Enterobacter cloacae MA75-1; format: cell-based; conditions: MA751; Enterobacter cloacae MA75-1; agar dilution, 35° C., 18 hours, nutrient agar; read-out: Minimal Inhibitory Concentration
Procedure: as §1

[26] = tested on: Escherichia coli W75-1; assay: In vitro MIC, agar dilution, Escherichia coli W75-1; format: cell-based; conditions: W751, 35° C., 18 hours, nutrient agar, read-out: Minimal Inhibitory Concentration
Procedure: as §1

[27] = single subcutaneous dose 1 mg./kg.
[28] = single subcutaneous dose 2 mg./kg.
[29] = single subcutaneous dose 4 mg./kg.
[30] = single subcutaneous dose 8 mg./kg.

| Compound | MIC [1] | MIC [2] | MIC [3] | MIC [4] | MIC [5] | MIC [7] | MIC [8] | Alive/Total Mice Tested, 7 Days After Infection [9, 27] | Alive/Total Mice Tested, 7 Days After Infection [9, 28] | Alive/Total Mice Tested, 7 Days After Infection [9, 29] | Alive/Total Mice Tested, 7 Days After Infection [9, 30] | MIC [10] | MIC [11] | MIC [12] | MIC [13] | MIC [14] | MIC [15] | MIC [16] | MIC [17] | MIC [19] | also measured |
| --- | --- | --- | --- | --- | --- | --- | --- | --- | --- | --- | --- | --- | --- | --- | --- | --- | --- | --- | --- | --- | --- |
| CO/N=C(\C(=O)NC1C(=O)N2C(C(=O)O)=C(CSc3nnc(-n4nc(C)cc4C)n3N)CSC12)c1csc(N)n1 (stereo not drawn) [Compound II, 7-[2-(Syn-methoxyimino)-2-(2-aminothiazol-4-yl)acetamido]-3-[4-amino-5-(1-[3,5-dimethyl]pyrazolyl)-1,2,4-triazol-3-ylthiomethyl]-3-cephem-4-carboxylicacid] | ≤ 0.12 µg/mL | ≤ 0.12 µg/mL | 2 µg/mL (≈ 3.3 µM) | 1 µg/mL (≈ 1.65 µM) | 0.5 µg/mL (≈ 0.826 µM) | 0.25 µg/mL (≈ 0.413 µM) | > 128 µg/mL | 0/5 | 5/5 | 5/5 | 5/5 | 2 µg/mL (≈ 3.3 µM) | 1 µg/mL (≈ 1.65 µM) | 0.5 µg/mL (≈ 0.826 µM) | ≤ 0.12 µg/mL | 0.25 µg/mL (≈ 0.413 µM) | 2 µg/mL (≈ 3.3 µM) | 64 µg/mL (≈ 106 µM) | 0.5 µg/mL (≈ 0.826 µM) | > 128 µg/mL | MIC ([6]; Pseudomonas aeruginosa, 1244, 18 h): 64 µg/mL (≈ 106 µM); MIC ([18]; Pseudomonas aeruginosa G236, agar dilution, 35° C., 18 hours, nutrient agar): 128 µg/mL (≈ 211 µM); MIC [20]: ≤ 0.12 µg/mL; MIC [21]: 0.25 µg/mL (≈ 0.413 µM); MIC [22]: > 128 µg/mL; MIC [23]: 0.5 µg/mL (≈ 0.826 µM); MIC [24]: ≤ 0.12 µg/mL; MIC [25]: 128 µg/mL (≈ 211 µM); MIC [26]: 0.25 µg/mL (≈ 0.413 µM) |
| CO/N=C(\C(=O)NC1C(=O)N2C(C(=O)O)=C(CSc3nnc(-n4nc(C)cc4-c4ccccc4)n3N)CSC12)c1csc(N)n1 (stereo not drawn) [Compound III, 7-[2-(Syn-methoxyimino)-2-(2-aminothiazol-4-yl)acetamido]-3-[4-amino-5-(1-[3-methyl-5-phenyl]pyrazolyl)-1,2,4-triazol-3-ylthiomethyl]-3-cephem-4-carboxylic acid] | 0.5 µg/mL (≈ 0.749 µM) | 0.25 µg/mL (≈ 0.374 µM) | 4 µg/mL (≈ 5.99 µM) | 4 µg/mL (≈ 5.99 µM) | 1 µg/mL (≈ 1.5 µM) | 1 µg/mL (≈ 1.5 µM) | > 128 µg/mL | 0/5 | 0/5 | 5/5 | 5/5 | 2 µg/mL (≈ 3 µM) | 4 µg/mL (≈ 5.99 µM) | 1 µg/mL (≈ 1.5 µM) | ≤ 0.12 µg/mL | 1 µg/mL (≈ 1.5 µM) | 8 µg/mL (≈ 12 µM) | 32 µg/mL (≈ 47.9 µM) | 2 µg/mL (≈ 3 µM) | > 128 µg/mL | MIC ([6]; 1244, Pseudomonas aeruginosa 12-4-4, agar dilution, 35° C., 18 hours, nutrient agar): 128 µg/mL (≈ 192 µM); MIC ([18]; Pseudomonas aeruginosa, G236, 18 h): > 128 µg/mL; MIC [20]: 0.5 µg/mL (≈ 0.749 µM); MIC [21]: 1 µg/mL (≈ 1.5 µM); MIC [22]: > 128 µg/mL; MIC [23]: 4 µg/mL (≈ 5.99 µM); MIC [24]: 0.25 µg/mL (≈ 0.374 µM); MIC [25]: 128 µg/mL (≈ 192 µM); MIC [26]: 1 µg/mL (≈ 1.5 µM) |
